In patent US11773109B2, “Composition for hardening soft tissue” (The Catholic University of Korea Industry—Academic …, priority 2016, dated 2023):
Entries after “also recorded” stand apart in the source; their conditions may differ.

Columns and labels:
pancreas of mice [1] = experiment: Tension (suture-holding capacity) of the mouse pancreas after treatment, Newton dynamometer; type: in vivo; conditions: for response vs control in vivo at 1000 µM: fold of control, read-out: increase of the tension of the pancreas compared to the control
Description: Specifically, it means a force which occurs in an organ in response to an external force exerted by stretching or pulling action. The measurement of the tension according to the present invention is performed using a dynamometer. More specifically, the tension is determined by measuring suture-holding capacity using a Newton dynamometer. At this time, the tension is calculated by adding the weight of the tissue.
(§1) More specifically, three mice were treated with 1 mM of each of the antibiotics shown above, and three mice were treated with phosphate buffered saline (PBS) as a control.
(2) Measurement of Tensile
The tension of the pancreas was measured using a dynamometer. Specifically, a pancreatic fragment having a size of 1×1×1.5 cm was prepared, and then silk 4-0 suture was passed through the tissue to form a knob, and suture-holding capacity was measured using a Newton dynamometer. At this time, the tension was calculated by adding the weight of the tissue.

pancreas of mice [2] = experiment: Hardness (elastic modulus) of the mouse pancreas after treatment, hardness meter (Venustron); type: in vivo
Description: The measurement of the hardness according to the present invention is performed using a hardness meter, and measurement of the hardness of the pancreas is performed by measuring elastic modulus (EM) based on the Hooke's law and the Hertz's contact stress theory. The EM is a measure of the stiffness of an elastic material, and is expressed as the ratio of “the stress along the axis” and “the total strain along the axis within the range of the stress” by the Hooke's law.
as §1
(1) Measurement of Hardness
In order to measure the resistance of the pancreas using a hardness meter, the elastic modulus (EM) of the dissected pancreas was measured using Venustron (Axiom, Koriyama, Japan) based on the Hooke's law and the Hertz's contract stress theory, and the resistance of the pancreas was calculated using the following equation: […]
(F, force; v, Poisson's ratio; t, variant of compression; r, the diameter of a rigid spherical probe that presses an object vertically)

[3] = mouse pancreas treated with 1 mM of compound, compared to control (PBS / untreated), result in words
[4] = mouse pancreas treated with 1 mM of compound

SMILES	change in the tension of the pancreas compared to the control (pancreas of mice [1]; [3])	response vs control in vivo at 1000 µM (pancreas of mice [1]; [4]) [%]	change in the hardness of the pancreas compared to the control (pancreas of mice [2]; [3])	change in the tension of the pancreas compared to the control (pancreas of mice [1]; mouse, in vivo)	change in the hardness of the pancreas compared to the control (pancreas of mice [2]; mouse, in vivo)
Oc1ccc(Cl)c2cccnc12 [KRP-00002, 5-chloro-8-hydroxyquinoline]	increased both the hardness and tension	≥ 150	increased both the hardness and tension	–	–
CC(=O)OCC1=C(C(=O)O)N2C(=O)[C@@H](N)[C@H]2SC1 [KRM-60081, (6R,7R)-3-(acetoxymethyl)-7-amino-8-oxo-5-thia-1-azabicyclo[4.2.0]oct-2-ene-2-carboxylic acid]	increased both the hardness and tension of the pancreas to significant levels	–	increased both the hardness and tension of the pancreas to significant levels	–	–
Oc1ccnc2ccccc12 [KRP-00012, 4-hydroxyquinoline]	increased both the hardness and tension	≥ 150	increased both the hardness and tension	–	–
CCn1cc(C(=O)O)c(=O)c2cnc(N3CCNCC3)nc21 [KRM-60082, 8-ethyl-5-oxo-2-(piperazin-1-yl)-5,8-dihydropyrido[2,3-d]pyrimidine-6-carboxylic acid]	increased both the hardness and tension of the pancreas to significant levels	–	increased both the hardness and tension of the pancreas to significant levels	–	–
Oc1c(I)cc(Cl)c2cccnc12 [KRP-00003, 5-chloro-8-hydroxy-7-iodoquinoline]	increased both the hardness and tension	≥ 150	increased both the hardness and tension	–	–
CCOCCOCCOC(=O)[C@@H]1N2C(=O)[C@@H](NC(=O)Cc3ccccc3)[C@H]2SC1(C)C [KRM-60080, 2-(2-ethoxyethoxy)ethyl (2S,5R,6R)-3,3-dimethyl-7-oxo-6-(2-phenylacetamido)-4-thia-1-azabicyclo[3.2.0]heptane-2-carboxylate]	increased both the hardness and tension of the pancreas to significant levels	–	increased both the hardness and tension of the pancreas to significant levels	–	–
Oc1ccc2ccccc2n1 [KRP-00014, 2-hydroxyquinoline]	increased both the hardness and tension	≥ 150	increased both the hardness and tension	–	–
CC(C)(S)[C@@H](N)C(=O)O [KRM-60037, (S)-2-amino-3-mercapto-3-methylbutanoic acid, reference compound]	had the effects of increasing the tension and hardness	150	had the effects of increasing the tension and hardness	–	–
O=C(O)c1ccc2cccnc2c1O [KRP-00016, 8-hydroxyquinoline-7-carboxylic acid]	increased both the hardness and tension	≥ 150	increased both the hardness and tension	–	–
Oc1c(I)cc(I)c2cccnc12 [KRP-00004, 5,7-diiodo-8-hydroxyquinoline]	increased both the hardness and tension	≥ 150	increased both the hardness and tension	–	–
CC1(C)S[C@@H]2[C@H](NC(=O)[C@H](N)c3ccccc3)C(=O)N2[C@H]1C(=O)[O-].[Na+] [KRM-60036, Sodium (2S,5R,6R)-6-((R)-2-amino-2-phenylacetamido)-3,3-dimethyl-7-oxo-4-thia-1-azabicyclo[3.2.0]heptane-2-carboxylate, reference compound]	had the effects of increasing the tension and hardness	–	significantly increased the hardness; also recorded: had the effects of increasing the tension and hardness; also recorded: excellent effect on an increase in the hardness	–	–
O=C(O)c1cc(O)c2cccc(O)c2n1 [KRP-00005, 4,8-dihydroxyquinoline-2-carboxylic acid]	increased both the hardness and tension	≥ 150	increased both the hardness and tension	–	–
CC(C)COC(=O)[C@@H]1N2C(=O)[C@@H](NC(=O)Cc3ccccc3)[C@H]2SC1(C)C [KRM-60078, Isobutyl (2S,5R,6R)-3,3-dimethyl-7-oxo-6-(2-phenylacetamido)-4-thia-1-azabicyclo[3.2.0]heptane-2-carboxylate]	increased both the hardness and tension of the pancreas to significant levels	–	increased both the hardness and tension of the pancreas to significant levels	–	–
Oc1cccc2cccnc12 [KRM-60042, 8-hydroxyquinoline, reference compound]	–	–	–	significantly increases both the hardness and tension; also recorded: had the effects of increasing the tension and hardness; also recorded: increased both the hardness and tension of the pancreas to high levels; also recorded: excellent effects on increases in both the hardness and tension	significantly increases both the hardness and tension; also recorded: had the effects of increasing the tension and hardness; also recorded: increased both the hardness and tension of the pancreas to high levels; also recorded: excellent effects on increases in both the hardness and tension
COc1cc(Cc2cnc(N)nc2N)cc(OC)c1OC [KRM-60088, 5-(3,4,5-trimethoxybenzyl)pyrimidine-2,4-diamine]	increased both the hardness and tension of the pancreas to significant levels	–	increased both the hardness and tension of the pancreas to significant levels	–	–
O=C(O)c1cnc2cc(C(F)(F)F)ccc2c1O [KRP-00009, 4-hydroxy-7-trifluoromethyl-3-quinolinecarboxylic acid]	increased both the hardness and tension	≥ 150	increased both the hardness and tension	–	–
CC1(C)S[C@@H]2[C@H](NC(=O)Cc3ccccc3)C(=O)N2[C@H]1C(=O)OCC1CCCCC1 [KRM-60029, Cyclohexylmethyl (2S,5R,6R)-3,3-dimethyl-7-oxo-6-(2-phenylacetamido)-4-thia-1-azabicyclo[3.2.0]heptane-2-carboxylate]	both the hardness and tension of the pancreas increased	–	both the hardness and tension of the pancreas increased	–	–
